These results are taken from paper PMC4555179, “Molecular insights into Zeaxanthin-dependent quenching in higher plants” (Scientific Reports, 2015).

Each structure is given as a SMILES string.

Assay [1] deals with T1, CP24 (CP24-his tag) (Arabidopsis thaliana, UniProt Q9LMQ2).
T1 construct: gene LHCB6; mature thylakoid protein (transit peptide removed in vivo), C-terminal His tag kept; purified from plant thylakoids by sucrose gradient (Band 2) and Ni column; monomer
T1 sequence (Q9LMQ2 50-258): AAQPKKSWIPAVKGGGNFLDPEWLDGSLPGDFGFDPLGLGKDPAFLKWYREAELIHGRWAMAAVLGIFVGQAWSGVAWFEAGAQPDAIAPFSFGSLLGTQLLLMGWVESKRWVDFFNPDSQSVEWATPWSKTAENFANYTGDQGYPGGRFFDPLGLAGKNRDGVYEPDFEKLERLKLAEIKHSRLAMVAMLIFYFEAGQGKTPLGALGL
In words: co-purified pigment, HPLC and absorption fit of acetone extract. It counts as binding. The following applies: complex from control plants; endogenous pigment.

Assay [2] addresses T1, CP24 (CP24-his tag). The description is as above. Type of assay: binding. To be noted: complex from light-stressed plants (30 min high light), pH 5.5, 4 °C; endogenous pigment; peripheral, not in internal L1/L2 sites.
Excerpt: co-purified pigment, HPLC and absorption fit of acetone extract on CP24 (CP24-his tag)

On to `CC1=C[C@H](O)CC(C)(C)[C@H]1/C=C/C(C)=C/C=C/C(C)=C/C=C/C=C(C)/C=C/C=C(C)/C=C/C1=C(C)C[C@@H](O)CC1(C)C` [L, lutein], for which the V in assay [1] is recorded as 0.89 ± 0.02 mol per monomer (normalised to 10 Chl).

Consider `CC(/C=C/C=C(C)/C=C/[C@@]12O[C@]1(C)C[C@@H](O)CC2(C)C)=C\C=C\C=C(C)\C=C\C=C(C)\C=C\[C@@]12O[C@]1(C)C[C@@H](O)CC2(C)C` [V, violaxanthin], for which, in assay [1], the V is reported as 0.89 ± 0.02 mol per monomer (normalised to 10 Chl).

As to `CC1=C(/C=C/C(C)=C/C=C/C(C)=C/C=C/C=C(C)/C=C/C=C(C)/C=C/C2=C(C)C[C@@H](O)CC2(C)C)C(C)(C)C[C@H](O)C1` [Z, zeaxanthin], the Z in assay [2] was 0.20 ± 0.00 mol per monomer (normalised to 10 Chl).
